Entries after “also recorded” stand apart in the source; their conditions may differ.
How the values were obtained:
CD4+CD25+ Foxp3 cells = experiment: Regulatory T cell levels in mouse EAE model; format: in vivo; details: for proliferation and amount of regulatory T cells: in the intestines and blood
Method: FIG. 4: is a graph showing the effect of propionic acid diet initiated at the time of disease induction (DI) compared to a control group on levels of CD4+CD25+ Foxp3 cells in mouse EAE model.
FIG. 5 is a graph showing the effect of lauric acid diet (250 μM and 500 μM) initiated at the time of disease induction (DI) compared to a control group on levels of CD4+CD25+ Foxp3 cells in mouse EAE model.
(§1) Mice kept under standardized conditions were fed on a normal diet enriched with long-chain fatty acids (30.9% lauric acid) and additionally with 200 μl of propionate daily administered orally. The propionate was given either at the time of disease induction (DI) or at the onset of the disease (OD).
(§2) For the induction of EAE the mice were anesthetized and administered two subcutaneous injections of a 50 μl emulsion applied to the left and right tail basis and comprising a total of 200 μg MOG35-55 (myelin oligodendrocyte glycoprotein) and 200 μg Freund's adjuvant (CFA) with 4 mg/ml of M. tuberculosis. Pertussistoxin ([…]) was given intraperitoneally on day 0 and 2 after the induction. The clinical assessment took place on a daily basis using a 5-point scale (SEM). The assessment was as follows: • 0=normal • 1=Tail paralysis impairing raising • 2=Gait ataxia • 3=Paraparesis of hind legs • 4=Tetraparesis • 5=Death Mice showing SEM 4 or 5 were excluded.

intestinal microbiota = experiment: Composition of the intestinal microbiome; format: in vivo, mice; details: for effect on normal intestinal microbiota / number of bacteria degrading propionate and butyrate: intestinal microbiome
Excerpt: The inventive acids, in particular propionic acid and butyric acid have an influence on the bowel physiology and the microbiome present there. In this way, they have an impact on the composition of the microbiome.

TH1 and TH17 cells = experiment: Th1/Th17 cells in small intestine and central nervous system, EAE model; format: in vivo; details: mouse EAE, lauric acid enriched diet
Excerpt: (§3) Moreover, the aliphatic chain length of the carboxylic acids also affects the […] autoimmunity as well as the regulatory response of Treg in an in vivo mouse model.

[1] = system: experimental autoimmune encephalomyelitis (EAE); experiment: Mouse EAE model, daily clinical assessment on 5-point scale (SEM); format: in vivo
Method: as §1, §2

[2] = system: experimental autoimmune encephalomyelitis (EAE); experiment: Mouse EAE model: relative axonal density, demyelination of white matter, CD3+ cells; format: in vivo; details: versus control group, FIG. 3
Method: FIG. 3: is a graph showing the effect of propionic acid diet initiated at the time of disease induction (DI) or at the time of onset of symptoms (OD) compared to a diet control group on relative axonal density, demyelination in the white matter, and CD3+ cells in the mouse EAE model.
as §1, §2
The influence of propionic acid on the relative axonal density, the demyelination of the white matter, and the number of CD3+-cells is shown in FIG. 3.

Foxp3 = experiment: Gene expression profiling of signature cytokines in EAE mice; format: in vivo, mouse; details: EAE mice fed propionic acid
Excerpt: as §3

IL-10 = experiment: as above; format: in vivo, mouse; details: EAE mice fed propionic acid
Excerpt: as §3

TGFβ = experiment: as above; format: in vivo, mouse; details: EAE mice fed propionic acid
Excerpt: as §3

adiponectin = experiment: Clinical study of sodium propionate, adiponectin levels; format: in vivo, human; details: 4 weeks after administration had been terminated, FIG. 6 column C
Excerpt: FIG. 6 is a graph showing the effect of administration of sodium propionate in a clinical study in ten patients on adiponectin levels.

## CCCC(=O)O [butyric acid]
CD4+CD25+ Foxp3 cells
  proliferation and amount of regulatory T cells: positive effect
Intestinal microbiota
  effect on normal intestinal microbiota: only slightly affected
  number of bacteria degrading propionate and butyrate: increases significantly

## CCCCCCCCCCCC(=O)O [lauric acid, reference compound]
CD4+CD25+ Foxp3 cells; lauric acid 250 μM and 500 μM, FIG. 5
  concentration dependence of the percentage reduction of CD4+CD25+ Foxp3 cells: dependent on concentration
CD4+CD25+ Foxp3 cells; lauric acid 250 μM and 500 μM, versus control value, FIG. 5
  CD4+CD25+ Foxp3 cells: reduction
TH1 and TH17 cells
  TH1 and TH17 cells in the small intestine: significant reduction
  Th1/Th17 in the central nervous system: accumulation
Intestinal microbiota; mice
  number of Provotellaceae and some families of Phylum Bacteroidetes: reduce significantly

## CCC(=O)O [propionic acid]
[1]; propionic acid given on the day of onset of disease (OD), FIG. 2
  disease course versus control group: significantly less favorable disease course
[1]; propionic acid given prophylactically (at disease induction, DI)
  disease course versus control group: significant improvement
[2]
  demyelination of the white matter: significant improvement
  number of CD3+ cells: significant improvement
  relative axonal density: significant improvement
CD4+CD25+ Foxp3 cells
  proliferation and amount of regulatory T cells: positive effect
CD4+CD25+ Foxp3 cells; mouse EAE, propionic acid at disease induction (DI), versus control group, FIG. 4
  number of regulatory T cells (CD4+CD25+ Foxp3+ Treg): significant increase
Foxp3
  Foxp3 gene expression: increased values; also recorded: significant increase
IL-10
  IL-10 gene expression: increased values; also recorded: significant increase
TGFβ
  TGFβ gene expression: increased values; also recorded: significant increase
Intestinal microbiota
  effect on normal intestinal microbiota: only slightly affected
  number of bacteria degrading propionate and butyrate: increases significantly

## CCC(=O)[O-].[Na+] [sodium propionate]
adiponectin
  duration of the adiponectin effect: lasts longer than the administration duration

From patent US11865091B2, “Supporting immunomodulatory agent” (Flexopharm Brain GMBH & Co. KG, priority 2014, dated 2024)
